# Laboratory results from US5008291A, “Method and composition for achieving chemotherapeutic activity” (Ohio State University Research Foundation, priority 1989, dated 1991).
# “Also recorded” adds a separate entry of the source.
# Columns and labels:
# beta-glucuronidase = conditions: cells, blood, urine, intestine (and liver); cited from earlier work
# MCF-7 cells = assay: Growth of MCF-7 cells (GL, HPR, GL and HPR), Table II; assay type: cell-based, human; conditions: 5 days; for No. of viable cells: mean ± SE of three experiments
# Description: The values shown are the mean +/- ISE for three experiments counted in triplicates. The numbers in parenthesis indicate the number of free floating (mostly non viable) cells in the media.
# [1] = tested on: established DMBA-induced mammary tumors; assay: Growth of established DMBA-induced rat mammary tumors, Example II; assay type: in vivo, female Sprague Dawley rats; conditions: for increase of tumor size / decrease of mammary tumor size: 25 days; for increase of tumor size: controls 98%; for tumor growth: diets supplemented with low ineffective doses; for effect on tumor growth/development when fed separately: low (ineffective) dosages fed separately
# Description: Louis, Mo.) in 1.0 ml of sesame oil, Abou-Issa et al., Proc. Natl. Acad. Sci. U.S.A., supra. […] Tumor sizes were measured in all the rats just before placing them on the following experimental diets (Groups I-VI): (I) rat chow (RMH 3200, Pro Lab, Syracuse, N.Y.); […] Natl. Acad. Sci. U.S.A., supra. The latter vehicle was added to the diet of all six groups. The additives were blended into the diet with a mechanical mixer. All the tumors that developed within the time frame of this example are histologically adenocarcinomas. This finding has been previously reported by Huggins et al., Mammary cancer induced by a single feeding of polynuclear hydrocarbons, and its suppression, Nature, 185:204-207 (1961), in this animal model under the same conditions, and has been confirmed in several indentical experiments. At later time periods beyond the time frame of this example fibroadenomas usually develop, Welsch et al., In "Cellular and Molecular Biology of Mammary Cancer", ([…] and E. Anderson, eds.) Plenum Press, N.Y. 1987, pp 163-179. Tumor measurements were began at the time the rats were placed on the experimental diets and were continued twice weekly throughout the duration of the experiment. Two axes were measured - the longest axis (L) and the axis at right angles to the longest (W), using a vernier caliper. […] Weights of the rats on the control and experimental diets were recorded weekly.
# [2] = tested on: DMBA-induced mammary tumors; assay: DMBA-induced mammary tumor formation (chemoprevention), Example I; assay type: in vivo, female Sprague Dawley rats; conditions: for No. of Rats with Tumors / Total No. Tumors: 20 rats
# Description: They were maintained on the diets for approximately 4 mos., and were examined (palpated) for mammary tumors weekly. […] The retinoid (HPR) was first dissolved in 25 ml of a vehicle consisting of ethanol-tricaprylin-6% α-tocopherol, then thoroughly mixed with powdered rat chow.
# Progesterone Receptors = assay: Progesterone receptors of established DMBA-induced mammary tumors; assay type: in vivo, female Sprague Dawley rats; conditions: N 7
# Description: (§1) Estrogen and progesterone receptors were measured in the OSU Hormone Receptor Laboratory by the multipoint dextran-coated charcoal method as previously described in Schuller et al., Estrogen and progesterone receptors in head and neck cancer, Arch. […] The data of specific binding were analyzed by Scatchard, The Attraction of proteins for small molecules and ions, Ann. N.Y. Acad. Sci. 51:660-672 (1949), plots to determine the equilibrium dissociation constant (Kd) and binding capacity expressed as femtomoles of estradiol or progesterone (R-5020) specifically bound per mg of cytosol protein for estrogen and progesterone receptors respectively. Cytosol protein concentrations were determined by the procedure of Lowry et al., Protein measurement with the folin phenol reagent, J. Biol. Chem. 193:265-275 (1951).
# [3] = Body weight gain of rats, Example I (FIG. 4); assay type: in vivo, female Sprague Dawley rats; conditions: prolonged feeding of diets containing CGT and HPR
# sex hormones = conditions: CGT diet; anti-promotional effect; cited from earlier work
# chemical carcinogenesis = conditions: sustained release dietary form; liver, lung, skin, mammary gland; cited from earlier work
# Estrogen Receptors = assay: Estrogen receptors of established DMBA-induced mammary tumors; assay type: in vivo, female Sprague Dawley rats; conditions: N 7
# Description: as §1
# [4] = Body weight of rats, Example II; assay type: in vivo, female Sprague Dawley rats; conditions: for Final Weight: end of experiment; for Initial Weight: just before treatment
# Description: Rat mammary tumors were induced by treating one hundred 50 day old female Sprague Dawley rats (Harlan Industries, Indianapolis, Ind.) by gavage with a single dose of 15 mg of 7,12-dimethylbenz(a)anthracene (Sigma Chemical Co., St. Louis, Mo.) in 1.0 ml of sesame oil, Abou-Issa et al., Proc. Natl. Acad. Sci. U.S.A., supra. The rats were maintained on a chow diet ad libitum until the tumors had formed in 70% of the rats and had reached a size of approximately 2.0 cm in diameter; 4 months later at which time they were randomized into six groups of 10 rats each. […] The latter vehicle was added to the diet of all six groups. The additives were blended into the diet with a mechanical mixer.
# Tumor regression is indicated by at least 20% reduction in tumor size and each tumor is compared to its initial size on day zero. Weights of the rats on the control and experimental diets were recorded weekly.
# [5] = tested on: 7,12-dimethylbenz(a)anthracene-induced mammary tumorigenesis; conditions: cited from earlier work
# [6] = as calcium glucarate; cited from earlier work
# [7] = CGT-supplemented diet; cited from earlier work
# [8] = tested on: established DMBA-induced mammary tumors; assay: HPR on already established DMBA-induced mammary tumors; assay type: in vivo, female Sprague Dawley rats
# Description: When higher doses (2 mmol/kg diet) of HPR were used, growth arrest was followed within 5 to 10 days by 30% regression of the DMBA-induced mammary tumors. Also, HPR (0.1 uM) inhibited the […] growth of the human breast cancer cell line (MCF-7) to 50% of the control within 7 days.
# [9] = rat, in vivo; cited from earlier work
# [10] = tested on: established mammary tumors; assay: HPR on established mammary tumors in CD8 F1 mice; assay type: in vivo; conditions: CD8 F1 mice with established mammary tumors
compound,measurement,setting,value
"O=C(O)[C@@H](O)[C@H]1OC(=O)[C@H](O)[C@H]1O [GL, D-glucaro-1,4-lactone]",inhibition of beta-glucuronidase,beta-glucuronidase,potent inhibitor of beta-glucuronidase
same,"free floating (mostly non viable) cells, % of control",MCF-7 cells; GL (10^-3 M),7 % of control
same,number of free floating (mostly non viable) cells,MCF-7 cells; GL (10^-3 M),4560
same,No. of viable cells,MCF-7 cells; GL (10^-3 M),32560 ± 1800
same,"free floating (mostly non viable) cells, % of control",MCF-7 cells; GL (10^-4 M),6 % of control
same,number of free floating (mostly non viable) cells,MCF-7 cells; GL (10^-4 M),3440
same,No. of viable cells,MCF-7 cells; GL (10^-4 M),49480 + 3160
"2,4-di-O-acetyl-D-glucaro-1,4-lactone [reference compound]",inhibition of beta-glucuronidase,beta-glucuronidase,effective as inhibitors of beta-glucuronidase
"O=C(O)[C@@H](O)[C@@H](O)[C@H](O)[C@@H](O)C(=O)[O-].[K+] [potassium hydrogen glucarate, reference compound]",inhibition of beta-glucuronidase,beta-glucuronidase,effective as inhibitors of beta-glucuronidase
"O=C([O-])[C@@H](O)[C@@H](O)[C@H](O)[C@@H](O)C(=O)[O-].[Ca+2] [CGT, calcium glucarate]",increase of tumor size,[1]; CGT 64 mmol/kg,55%
same,decrease of mammary tumor size,[1]; CGT 128 mmol/kg,25%
same,tumor growth,[1],continued to grow
same,effect on tumor growth/development when fed separately,[1],enhanced tumor growth; also recorded: no observable inhibitory effect and indeed enhanced tumor development
same,Tumor Incidence,[2]; 1% CGT in diet,55
same,Tumors Per Rat,[2]; 1% CGT in diet,1.0
same,No. of Rats with Tumors,[2]; 1% CGT in diet,11
same,Total No. Tumors,[2]; 1% CGT in diet,20
same,Tumor Incidence,[2]; 2% CGT in diet,55
same,Tumors Per Rat,[2]; 2% CGT in diet,1.0
same,No. of Rats with Tumors,[2]; 2% CGT in diet,11
same,Total No. Tumors,[2]; 2% CGT in diet,20
same,Tumor Incidence,[2]; 4% CGT in diet,35
same,Tumors Per Rat,[2]; 4% CGT in diet,0.5
same,No. of Rats with Tumors,[2]; 4% CGT in diet,7
same,Total No. Tumors,[2]; 4% CGT in diet,10
same,inhibition of tumor incidence,[2]; CGT (4%),50-60%
same,inhibition of tumors/rat,[2]; CGT (4%),50-65%
same,minimum dosage used alone consistent with maximum inhibition of carcinogenesis,"[2]; CGT alone, 4 gm/100 gm of chow diet",~4 gm %
same,inhibition of beta-glucuronidase,beta-glucuronidase,effective as inhibitors of beta-glucuronidase
same,Progesterone Receptors,Progesterone Receptors; CGT (2%),84.4 +/- 17.0 Fmoles/mg Protein
same,Progesterone Receptors,Progesterone Receptors; CGT (4%),82.0 +/- 16.0 Fmoles/mg Protein
same,effect on weight gain,[3],did not affect weight gain
same,steady-state level of sex hormones,sex hormones,reduction in the steady-state level of sex hormones
same,chemopreventive activity,chemical carcinogenesis,potent chemopreventative agent
same,Estrogen Receptors,Estrogen Receptors; CGT (2%),42.7 +/- 7.0 Fmoles/mg Protein
same,Estrogen Receptors,Estrogen Receptors; CGT (4%),44.3 +/- 5.9 Fmoles/mg Protein
same,Final Weight,[4]; CGT (2%),415 +/- 15 gm
same,Initial Weight,[4]; CGT (2%),401 +/- 10 gm
same,Final Weight,[4]; CGT (4%),429 +/- 26 gm
same,Initial Weight,[4]; CGT (4%),404 +/- 22 gm
same,tumor induction relative to controls,"[5]; 4% CGT diet from two weeks after carcinogen, by 28 weeks",30 % of that in the controls
same,regression of tumors,"[5]; chow diet supplemented with CGT, some tumors",underwent regression
same,dietary dosage that is non-toxic,[6],up to 10 % in the diet
same,food quantity and weight gain,[7],identical to those on the normal chow diet
"CC1=C(/C=C/C(C)=C/C=C/C(C)=C/C(=O)Nc2ccc(O)cc2)C(C)(C)CCC1 [HPR, N-(4-hydroxyphenyl) retinamide]",increase of tumor size,[1]; HPR 0.75 mmol/kg,70%
same,decrease of mammary tumor size,[1]; HPR 2 mmol/kg,15%
same,tumor growth,[1],continued to grow
same,effect on tumor growth/development when fed separately,[1],no observable inhibitory effect and indeed enhanced tumor development
same,Tumor Incidence,[2]; 0.75 mmol/kg diet HPR,60
same,Tumors Per Rat,[2]; 0.75 mmol/kg diet HPR,1.0
same,No. of Rats with Tumors,[2]; 0.75 mmol/kg diet HPR,12
same,Total No. Tumors,[2]; 0.75 mmol/kg diet HPR,20
same,inhibition of tumor incidence,[2]; HPR (1.5 mmol),50-60%
same,inhibition of tumors/rat,[2]; HPR (1.5 mmol),50-65%
same,minimum dosage used alone consistent with maximum inhibition of carcinogenesis,"[2]; HPR alone, in diet",1.0 to 1.5 mmol/kg
same,inhibition of tumor growth,"[8]; 1.0 mmol/kg diet daily, within 10 days",80-90%
same,tumor growth,[8]; 2 mmol/kg diet,growth arrest
same,regression of DMBA-induced mammary tumors,"[8]; 2 mmol/kg diet, within 5 to 10 days after growth arrest",30%
same,Progesterone Receptors,Progesterone Receptors; HPR (0.75 mmol/kg),90.7 +/- 18.0 Fmoles/mg Protein
same,Progesterone Receptors,Progesterone Receptors; HPR (2.0 mmol/kg),89.3 +/- 13.7 Fmoles/mg Protein
same,effect on weight gain,[3],did not affect weight gain
same,"free floating (mostly non viable) cells, % of control",MCF-7 cells; HPR (5 × 10^-8 M),7 % of control
same,number of free floating (mostly non viable) cells,MCF-7 cells; HPR (5 × 10^-8 M),4160
same,No. of viable cells,MCF-7 cells; HPR (5 × 10^-8 M),33680 ± 2627
same,Estrogen Receptors,Estrogen Receptors; HPR (2.0 mmol/kg),50.6 +/- 8.4 Fmoles/mg Protein
same,Final Weight,[4]; HPR (0.75 mmol/kg),421 +/- 14 gm
same,Initial Weight,[4]; HPR (0.75 mmol/kg),409 +/- 18 gm
same,Final Weight,[4]; HPR (2.0 mmol/kg),413 +/- 10 gm
same,Initial Weight,[4]; HPR (2.0 mmol/kg),401 +/- 13 gm
same,tissue trophism,[9],displays trophism for the mammary gland
same,inhibition of tumor growth,[10],50%
